Where two headings read alike, the source gives them in different places. Each block holds one molecule with its values, some of them ahead of it.
Assays:
[1] = biological target: GDP-bound KRAS wild-type protein (Homo sapiens, UniProt P01116); experiment: Binding to KRAS by surface plasmon resonance (SPR), Single Cycle Kinetics; settings: GDP-bound KRAS wild-type protein, read-out: KRAS KD
[2] = biological target: GDP-bound NRAS wild-type protein (Homo sapiens, UniProt P01111); experiment: Binding to NRAS by surface plasmon resonance (SPR), Single Cycle Kinetics; settings: for NRAS/KRAS (ratio of KD value with respect to NRAS to KD value with respect to KRAS) / NRAS/KRAS (ratio of KD value for NRAS to KD value for KRAS): SPR, GDP-bound NRAS wild-type protein vs GDP-bound KRAS wild-type protein
Chain of GDP-bound NRAS wild-type protein (P01111 whole entry): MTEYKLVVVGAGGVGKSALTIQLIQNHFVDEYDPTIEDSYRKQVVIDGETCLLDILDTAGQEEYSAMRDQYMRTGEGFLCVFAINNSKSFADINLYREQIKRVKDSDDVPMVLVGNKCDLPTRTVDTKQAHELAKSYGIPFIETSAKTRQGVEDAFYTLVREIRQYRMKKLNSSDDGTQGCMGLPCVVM

[3] = biological target: GDP-bound HRAS wild-type protein (Homo sapiens, UniProt P01112); experiment: Binding to HRAS by surface plasmon resonance (SPR), Single Cycle Kinetics; settings: for HRAS/KRAS (ratio of KD value with respect to HRAS to KD value with respect to KRAS) / HRAS/KRAS (ratio of KD value for HRAS to KD value for KRAS): SPR, GDP-bound HRAS wild-type protein vs GDP-bound KRAS wild-type protein
Chain of GDP-bound HRAS wild-type protein (P01112 whole entry): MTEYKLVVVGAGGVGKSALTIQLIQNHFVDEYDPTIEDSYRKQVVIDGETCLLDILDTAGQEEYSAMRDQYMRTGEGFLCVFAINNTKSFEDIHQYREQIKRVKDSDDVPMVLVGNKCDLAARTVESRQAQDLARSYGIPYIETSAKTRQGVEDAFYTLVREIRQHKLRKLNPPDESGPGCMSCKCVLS

[4] = SPR Single Cycle Kinetics, 1:1 binding model

Chain of GDP-bound KRAS wild-type protein (P01116 whole entry): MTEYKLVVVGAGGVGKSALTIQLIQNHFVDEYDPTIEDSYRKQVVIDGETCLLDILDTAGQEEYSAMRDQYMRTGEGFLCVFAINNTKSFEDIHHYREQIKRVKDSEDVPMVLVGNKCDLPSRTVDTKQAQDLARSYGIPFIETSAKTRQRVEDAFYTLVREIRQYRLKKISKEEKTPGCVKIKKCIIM

Kd [1, 4]: 0.019 nM
Compound: CC[C@H](C)[C@@H]1NC(=O)[C@H](C)N(C)C(=O)C[C@@H](C(=O)N(C)C)N(C)C(=O)[C@H](C2CCCC2)N(C)C(=O)C2(CCCC2)NC(=O)[C@@H]2CC(F)(F)CN2C(=O)[C@H](CCc2cc(F)c(C(F)(F)F)c(F)c2)NC(=O)CN(C)C(=O)[C@H](Cc2ccc(C(F)(F)F)cc2)N2CCCC[C@@H](C2=O)N(C)C(=O)CN(C)C1=O [PP0583]
NRAS/KRAS (ratio of KD value with respect to NRAS to KD value with respect to KRAS) [2]: C (A compound having a KD ratio of 0.1 or more and less than 3 is denoted as C) | HRAS/KRAS (ratio of KD value with respect to HRAS to KD value with respect to KRAS) [3]: C (A compound having a KD ratio of 0.1 or more and less than 3 is denoted as C)

Kd [1, 4]: 18 nM
Compound: CC[C@H](C)[C@@H]1NC(=O)[C@H](CC(C)C)N(C)C(=O)C[C@@H](C(=O)N2CCOCC2)N(C)C(=O)[C@H](C2CCCC2)N(C)C(=O)C2(CCCC2)NC(=O)[C@@H]2CCCN2C(=O)[C@H](CCc2cc(F)c(C(F)(F)F)c(F)c2)NC(=O)CN(C)C(=O)[C@H](Cc2ccc(C(F)(F)F)cc2)N2CCCC[C@@H](C2=O)N(C)C(=O)[C@H](C)N(C)C1=O [PP0544]
NRAS/KRAS (ratio of KD value with respect to NRAS to KD value with respect to KRAS) [2]: B (a compound having 3 or more and less than 10 is denoted as B) | HRAS/KRAS (ratio of KD value with respect to HRAS to KD value with respect to KRAS) [3]: B (a compound having 3 or more and less than 10 is denoted as B)

Kd [1, 4]: 28 nM
Compound: CC[C@H](C)[C@@H]1NC(=O)[C@H](CC(C)C)N(C)C(=O)C[C@@H](C(=O)N2CCOCC2)N(C)C(=O)[C@H](C2CCCC2)N(C)C(=O)C2(CCCC2)NC(=O)[C@@H]2CCCN2C(=O)[C@H](CCc2cc(F)c(C(F)(F)F)c(F)c2)NC(=O)CN(C)C(=O)[C@H](Cc2ccc(C(F)(F)F)cc2)N2CCCCC[C@@H](C2=O)N(C)C(=O)[C@@H]2CCCN2C1=O [PP0485]
NRAS/KRAS (ratio of KD value with respect to NRAS to KD value with respect to KRAS) [2]: A (a compound having 10 or more and less than 20 is denoted as A) | HRAS/KRAS (ratio of KD value with respect to HRAS to KD value with respect to KRAS) [3]: B (a compound having 3 or more and less than 10 is denoted as B)

Kd ([1]; SPR, Single Cycle Kinetics): 0.11 nM
Compound: CCCN(C)C(=O)[C@@H]1CC(=O)N(C)[C@@H](C2CC2)C(=O)N[C@@H]([C@@H](C)CC)C(=O)N(C)CC(=O)N(C)[C@H]2C/C=C\CCN(C2=O)[C@@H](Cc2ccc(C(F)(F)F)cc2)C(=O)N(C)CC(=O)N[C@@H](CCc2ccc(C(F)(F)F)c(OC)c2)C(=O)N2C[C@@H](C)C[C@H]2C(=O)NC2(CCC2)C(=O)N(C)[C@@H](C2CCCC2)C(=O)N1C [PP2070]
NRAS/KRAS (ratio of KD value for NRAS to KD value for KRAS) [2]: A (a compound having 10 or more and less than 20 is denoted as A) | HRAS/KRAS (ratio of KD value for HRAS to KD value for KRAS) [3]: A (a compound having 10 or more and less than 20 is denoted as A)

Kd [1, 4]: 2.1 nM
Compound: CCO[C@@H]1C[C@H]2C(=O)NC3(CCC3)C(=O)N(C)[C@@H](C3CCCC3)C(=O)N(C)[C@H](C(=O)N(C)C)CC(=O)N(C)[C@@H](CC3CCCC3)C(=O)N[C@@H]([C@@H](C)CC)C(=O)N(C)CC(=O)N(C)[C@H]3C/C=C\CCN(C3=O)[C@@H](Cc3ccc(C)cc3)C(=O)N(C)CC(=O)N[C@@H](CCc3ccc(C4CC4)c(C)c3)C(=O)N2C1 [PP2685]
NRAS/KRAS (ratio of KD value with respect to GDP-bound NRAS wild-type protein to KD value with respect to KRAS) ([2]; SPR KD ratio NRAS/KRAS, class symbols): A (a compound having 10 or more and less than 20 is denoted as A) | HRAS/KRAS (ratio of KD value with respect to GDP-bound HRAS wild-type protein to KD value with respect to KRAS) ([3]; SPR KD ratio HRAS/KRAS, class symbols): A (a compound having 10 or more and less than 20 is denoted as A)

Kd ([1]; SPR, Single Cycle Kinetics, 1:1 binding model): 0.051 nM
Compound: CC[C@H](C)[C@@H]1NC(=O)[C@H](CC2CC2)N(C)C(=O)C[C@@H](C(=O)N(C)CC)N(C)C(=O)[C@H](C2CCCC2)N(C)C(=O)C2(CC(C)(C)C2)NC(=O)[C@@H]2C[C@@H](F)CN2C(=O)[C@H](CCc2cc(F)c(C(F)(F)F)c(F)c2)NC(=O)CN(C)C(=O)[C@H](Cc2ccc(C(F)(F)F)cc2)N2CC/C=C\C[C@@H](C2=O)N(C)C(=O)CN(C)C1=O [PP1570]
NRAS/KRAS (ratio of KD value for NRAS to KD value for KRAS) ([2]; KD ratio class): AA (a compound having 20 or more is denoted as AA) | HRAS/KRAS (ratio of KD value for HRAS to KD value for KRAS) ([3]; KD ratio class): A (a compound having 10 or more and less than 20 is denoted as A)

Compound: CCCO[C@@H]1C[C@H]2C(=O)NC3(CC(C)(C)C3)C(=O)N(C)[C@@H](C3CCCC3)C(=O)N(C)[C@H](C(=O)N3CCCCC3)CC(=O)N(C)[C@H]3CCCc4ccc(cc4)C[C@@H](C(=O)N(C)CC(=O)N[C@@H](CCc4ccc(C(F)(F)F)c(OC)c4)C(=O)N2C1)N1CC/C=C\C[C@@H](C1=O)N(C)C(=O)CN(C)C(=O)[C@H]([C@@H](C)CC)NC3=O [PP3064]
Kd ([1]; SPR, Single Cycle Kinetics): 0.37 nM | NRAS/KRAS (ratio of KD value for NRAS to KD value for KRAS) [2]: B (a compound having 3 or more and less than 10 is denoted as B) | HRAS/KRAS (ratio of KD value for HRAS to KD value for KRAS) [3]: B (a compound having 3 or more and less than 10 is denoted as B)

Reference: patent US20240158446A1, “CYCLIC COMPOUND HAVING SELECTIVE INHIBITORY ACTION ON KRAS OVER HRAS AND NRAS” (CHUGAI SEIYAKU KABUSHIKI KAISHA, priority 2021, published 2024)
